In one assay the target is T1, Or43a receptor (Drosophila melanogaster, UniProt P81917, L154V).
T1 construct: His (from vector pAc5.1/V5-His B) (C); expressed in transfected cells
In words: cAMP production in Schneider cells expressing Or43a receptor. The assay is classed as cell-based. On the procedure:
Cells are grown on dishes and the media changed the day before the treatment. […] About 20 mL of insect saline is added, and cells are harvested by gentle scraping. An aliquot of the cells is counted by hemocytometer, and the cells are then centrifuged for about 5 minutes at about 1000 RPM. Cells are resuspended to give about 3×10^6 cells per mL. IBMX is added to about 200 μM. Then about 1 mL of cell suspension is aliquoted for treatment. Forskolin (cAMP inducing agent), tyramine or different composition candidates are added, and the cells are incubated at about 27° C. for about 10 minutes.
Treated cells are centrifuged at about 13000 g for about 10 seconds. The solution is aspirated and about 1 mL of about −20° C. 70% ethanol is added. The cell pellet is disrupted by vortexing and the samples placed at about −20° C. overnight. Following the ethanol extraction, cellular debris is pelleted by centrifugation at about 13000 g for about 5 minutes. The supernatant is transferred to a tube and lyophilized to dryness in a rotary speed-vac. The resulting extract is resuspended in about 100 μL TE and used for the cAMP assay.
The cAMP assay is based on competition binding between endogenous cAMP and ^3H-cAMP to a cAMP binding protein. The ^3H-cAMP Biotrak system (Amersham Biosciences) is used for this assay as per the manufacturer's instructions. Briefly, about 50 μL of the cellular extract is incubated with about 50 μL ^3H-cAMP and about 100 μL cAMP binding protein in an ice bath for about 2-4 hours. Charcoal (about 100 μL) is then added and the solution centrifuged for about 3 minutes at about 4° C. About 200 μL of the reaction mixture is removed and levels of ^3H-cAMP are determined by scintillation counting.
As such, the cells expressing olfactory receptors have a functionally active cAMP cascade.

Another assay deals with T2, Or83b receptor (Drosophila melanogaster, UniProt Q9VNB5).
T2 construct: His (from vector pAc5.1/V5-His B) (C); expressed in transfected cells
T2 sequence (Q9VNB5 1-486): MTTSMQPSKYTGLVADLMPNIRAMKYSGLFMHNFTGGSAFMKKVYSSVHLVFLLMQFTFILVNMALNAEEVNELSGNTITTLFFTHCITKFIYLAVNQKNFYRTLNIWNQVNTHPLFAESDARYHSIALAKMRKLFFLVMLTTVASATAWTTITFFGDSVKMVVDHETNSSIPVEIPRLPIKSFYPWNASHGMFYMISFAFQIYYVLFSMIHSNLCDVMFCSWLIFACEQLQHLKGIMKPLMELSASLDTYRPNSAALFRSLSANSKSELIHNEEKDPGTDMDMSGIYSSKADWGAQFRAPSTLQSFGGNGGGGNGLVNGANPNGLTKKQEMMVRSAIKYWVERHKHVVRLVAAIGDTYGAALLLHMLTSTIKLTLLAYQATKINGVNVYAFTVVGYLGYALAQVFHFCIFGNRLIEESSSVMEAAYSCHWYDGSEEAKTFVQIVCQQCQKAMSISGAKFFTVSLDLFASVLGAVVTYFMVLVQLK
In words: Intracellular Ca^2+ mobilization in Schneider cells expressing Or83b receptor. The assay is classed as cell-based. The settings on record: ionomycin about 2 μM, tyramine about 10 μM. On the procedure: Intracellular calcium ion concentrations ([Ca^2+]i) are measured by using the acetoxymethyl (AM) ester of the fluorescent indicator fura-2 (Enan, et al., Biochem. Pharmacol vol 51, 447-454). In this study, cells expressing tyramine receptor are grown under standard conditions. A cell suspension is prepared in assay buffer (140 mM NaCL, 10 mM HEPES, 10 mM glucose, 5 mM KCl, 1 mM CaCl2, 1 mM MgCl2) and cell number adjusted to about 2×10^6 cells per ml. Briefly, about 1.0 ml cell suspension (about 2×10^6 cells) is incubated with about 5 μM Fura 2/AM for about 30 min at about 28° C. After incubation, the cells are pelleted at about 3700 rpm for about 10 sec at room temperature and then resuspended in about 1.5 ml assay buffer. [Ca^2+]i changes are analyzed in spectrofluorometer in the presence and absence of test chemicals. Excitation wave lengths are about 340 nm (generated by Ca^2+-bound fura-2) and about 380 nm (corresponding to Ca^2+-free fura-2). The fluorescence intensity is monitored at an emission wave length of about 510 nm. No absorbance of fluorescence artifacts are observed with any of the compounds used. The ratio of about 340/380 nm is calculated and plotted as a function of time.
Intracellular Ca^2+ levels are measured using the method described above in Example 3.

T1 sequence (P81917 whole entry L154V): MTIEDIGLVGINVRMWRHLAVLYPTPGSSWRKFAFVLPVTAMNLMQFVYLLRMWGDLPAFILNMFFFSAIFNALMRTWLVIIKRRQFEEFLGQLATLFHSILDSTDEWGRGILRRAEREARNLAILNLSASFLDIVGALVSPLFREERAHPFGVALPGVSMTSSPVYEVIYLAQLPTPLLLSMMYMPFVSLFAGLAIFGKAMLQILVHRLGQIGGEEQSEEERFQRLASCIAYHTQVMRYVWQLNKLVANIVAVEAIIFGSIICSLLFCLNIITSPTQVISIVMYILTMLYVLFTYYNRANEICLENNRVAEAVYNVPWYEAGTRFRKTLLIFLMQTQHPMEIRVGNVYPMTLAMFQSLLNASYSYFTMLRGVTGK

With `NCCc1ccc(O)cc1` [tyramine], the “change in cAMP levels” value at Or43a receptor (agent alone, tyramine about 20 μM, LFO, BSO about 50 μg/ml, forskolin about 10 μM) is reported as “increase in cAMP levels”. The “change in cAMP levels, with forskolin” value on Or43a receptor (plus forskolin about 10 μM) was “increase in cAMP levels”. Moreover, the “increase in intracellular calcium” value on Or83b receptor was roughly 1.18 fold.

The values above are taken from patent US20080075796A1, “Compositions and Methods for Controlling Insects” (TyraTech, Inc., priority 2003, published 2008).
